# Earlier results, collected in patent US10980740B2, “Tranexamic acid spray for knee arthroplasty” (SHILPA MEDICARE LIMITED, priority 2017, dated 2021).
# Where two headings read alike, the source gives them in different places.
# What was measured:
# plasminogen = plasminogen (Homo sapiens, UniProt P00747)
# [1] = test system: patients undergoing elective total knee arthroplasty
# [2] = test system: Total knee arthroplasty patients
# Sequence of plasminogen (P00747 20-810 limits assumed, species assumed): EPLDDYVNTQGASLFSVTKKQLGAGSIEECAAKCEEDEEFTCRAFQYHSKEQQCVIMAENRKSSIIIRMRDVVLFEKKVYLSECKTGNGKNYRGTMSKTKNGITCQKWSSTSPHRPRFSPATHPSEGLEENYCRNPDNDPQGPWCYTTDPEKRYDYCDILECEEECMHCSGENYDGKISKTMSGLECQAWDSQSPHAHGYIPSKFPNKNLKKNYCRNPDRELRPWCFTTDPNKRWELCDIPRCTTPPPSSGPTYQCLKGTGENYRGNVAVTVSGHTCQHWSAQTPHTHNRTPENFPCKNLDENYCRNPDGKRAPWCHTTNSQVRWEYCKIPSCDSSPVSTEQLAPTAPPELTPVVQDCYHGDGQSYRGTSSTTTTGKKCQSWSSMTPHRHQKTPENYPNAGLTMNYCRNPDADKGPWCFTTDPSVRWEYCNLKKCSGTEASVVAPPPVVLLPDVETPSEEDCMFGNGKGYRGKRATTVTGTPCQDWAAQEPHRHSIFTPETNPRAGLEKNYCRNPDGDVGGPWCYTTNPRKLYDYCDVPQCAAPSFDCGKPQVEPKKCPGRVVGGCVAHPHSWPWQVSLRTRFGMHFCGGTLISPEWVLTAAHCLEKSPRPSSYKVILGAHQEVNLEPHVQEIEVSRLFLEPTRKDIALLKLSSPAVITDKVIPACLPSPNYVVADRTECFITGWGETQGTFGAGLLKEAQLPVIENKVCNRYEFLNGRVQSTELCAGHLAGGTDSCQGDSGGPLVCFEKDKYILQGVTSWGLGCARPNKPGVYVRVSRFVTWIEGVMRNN
smiles,measurement,setting,value
NC[C@H]1CC[C@H](C(=O)O)CC1 [Tranexamic acid],potency in vitro relative to aminocaproic acid,plasminogen,about 10 times
same,reducing calculated blood loss and transfusion rates,[1]; intravenous,effective
same,reducing calculated blood loss and transfusion rates,"[1]; topical, 3 gm diluted in 45 mL normal saline, applied after cementation",effective
same,systemic side effects,[2]; topical tranexamic acid,reduces the systemic side effects
same,"reduction of peri- and post-operative blood loss, topical compared with intravenous","[2]; total knee arthroplasty, topical 2 gm in intra-articular drain, clamped one hour",equally efficacious
